System: influenza virus (A/WS/33)
Settings: FIG. 6
Protocol: The protocol described here is a two-step assay, i.e., the neuraminidase reaction and firefly luciferase reaction are carried out sequentially in two steps. Approximately 1 μg of conjugate was incubated at 37° C. for 15 minutes with 0, 0.5, 5, 50, 500 or 5,000 TCID50 units of influenza virus (A/WS/33) in a 25 μL reaction solution (32.5 mM MES, pH 6.5, 4 mM CaCl2, 0.65% Triton X-100). 12.5 μL of the reaction solution was mixed with 100 μL of luciferase reaction solution (20 nM recombinant firefly luciferase, 4 mM ATP, 13.4 mM MgSO4, 100 mM Trizma, pH 7.9, 4% mannitol, and 1% sucrose) and measured for light signal using a luminometer (Sirius purchased from Berthold). Total light output was collected by integrating RLU over a period of 30 seconds.

`CC(=O)NC1C(O)CC(Oc2ccc3nc(C4=NC(C(=O)O)CS4)sc3c2)(C(=O)O)OC1C(O)C(O)CO` (centres unmarked) [N-acetylneuraminic acid-firefly luciferin conjugate] was tested, and the “influenza virus input resulting in significantly more signal in comparison with the negative control” value (approx. 1 μg conjugate, 37° C., 15 minutes, pH 6.5, RLU integrated over 30 seconds) was 50 TCID50 units and the “response of the signal to virus input” value (over the entire range tested (0.5 to 5,000 TCID50 units)) was “linear response”.
